Key:
[1] = Intrinsic dissolution rate, USP chapter 1087 (Example 5); format: physicochemical
Procedure: A test of measuring intrinsic dissolution rate (according to USP chapter 1087 “APPARENT […] DISSOLUTION-DISSOLUTION TESTING PROCEDURES FOR ROTATING DISK AND STATIONARY DISK”) was performed on a composition containing the amorphous and crystalline forms (form I crystals) of 9-ethyl-6,6-dimethyl-8-(4-morpholin-4-yl-piperidin-1-yl)-11-oxo-6,11-dihydro-5H-benzo[b]carbazole-3-carbonitrilemonohydrochloride at certain ratios. It was concluded that the dissolution rate was increased when the content of the amorphous was about 15% or higher.

[2] = Residual rate of principal drug by HPLC after storage (Test Example 5); format: physicochemical
Procedure: The amorphous substances and the solid dispersions of 9-ethyl-6,6-dimethyl-8-(4-morpholin-4-yl-piperidin-1-yl)-11-oxo-6,11-dihydro-5H-benzo[b]carbazole-3-earbonitrile obtained in Examples 8 to 15 were tested under two conditions: i) they were stored in a thermostatic bath set at 40° C. for 3 months, and ii) they were stored in a thermostatic bath set at 40° C. and 75% RH for 3 months in an open state. Residual rates of the principal drugs were measured under following conditions of high performance liquid chromatography. It was concluded that the amorphous substances and the solid dispersions were chemically stable.
Detector: UV absorptiometer (measurement wavelength: 230 nm)
Column: stainless column of 4.6 mm in inner diameter and 15 cm in length, filled with 3.5 um of octadecylsilyl silica gel for liquid chromatography
Column temperature: fixed temperature about 35° C.
Mobile phase A: mixed solution of acetonitrile/trifluoroacetic acid (2000:1)
Mobile phase B: mixed solution of water/trifluoroacetic acid (2000:1)
Mobile phase supply: controlled concentration gradient with varying mixing ratio of mobile phases A and B as follows.

Compound	Intrinsic dissolution rate ([1]; Amount of amorphous 5.6%) [mg/cm^2/min]	Intrinsic dissolution rate ([1]; Amount of amorphous 9.8%) [mg/cm^2/min]	Intrinsic dissolution rate ([1]; Amount of amorphous 16.8%) [mg/cm^2/min]	Intrinsic dissolution rate ([1]; Amount of amorphous (%): 0 < Lower than detection limit) [mg/cm^2/min]	Retention rate after 3 months at 40° C. in 75 % RH ([2]; 40° C. and 75% RH, open state)	Retention rate after 3 months at 40° C. ([2]; thermostatic bath 40° C.)
CCc1cc2c(cc1N1CCC(N3CCOCC3)CC1)C(C)(C)c1[nH]c3cc(C#N)ccc3c1C2=O.Cl [9-ethyl-6,6-dimethyl-8-(4-morpholin-4-yl-piperidin-1-yl)-11-oxo-6,11-dihydro-5H-benzo[b]carbazole-3-carbonitrilemonohydrochloride]	0.0065	0.0065	0.0112	0.0078		
CCc1cc2c(cc1N1CCC(N3CCOCC3)CC1)C(C)(C)c1[nH]c3cc(C#N)ccc3c1C2=O [Example 8, 9-ethyl-6,6-dimethyl-8-(4-morpholin-4-yl-piperidin-1-yl)-11-oxo-6,11-dihydro-5H-benzo[b]carbazole-3-carbonitrile]					99.66	99.60

— patent US10344014B2, “Amorphous form of tetracyclic compound” (Chugai Seiyaku Kabushiki Kaisha, priority 2014, dated 2019)
